From ChEMBL document CHEMBL3425462, “N-Arylmethylaminoquercitols, a new series of effective antidiabetic agents having α-glucosidase inhibition and antioxidant activity” (Bioorg Med Chem Lett, 2015)
pIC50: −log10 of the molar value.

How the values were obtained:
[1] = Antioxidant activity of the compound assessed as DPPH radical scavenging activity incubated in dark condition for 15 mins by colorimetric method; assay type: physicochemical; conditions: 0.25 h
[2] = Antioxidant activity of the compound assessed as DPPH radical scavenging activity at 5 mg/ml incubated in dark condition for 15 mins by colorimetric method relative to control; assay type: physicochemical; conditions: 0.25 h
[3] = Inhibition of baker's yeast alpha-glucosidase; design: species or system Saccharomyces cerevisiae
Saccharomyces cerevisiae = assay: Inhibition of baker's yeast alpha-glucosidase at 10 mg/ml relative to control

**Q.** Which SC50 [1] does the source give for `COc1cc(C=O)ccc1O` [VANILLIN] here?
**A.** Its SC50 is 4.9 mM.

**Q.** Which Activity [2] does the source give for `OC(CN[C@H]1C[C@@H](O)[C@H](O)[C@@H](O)[C@H]1O)c1ccccc1` (stereo partly drawn) here?
**A.** The Activity was less than 20%.

**Q.** And the pIC50 [3]?
**A.** The pIC50 was 2.52.

**Q.** Which results are given for `N[C@H]1C[C@@H](O)[C@H](O)[C@@H](O)[C@H]1O`?
**A.** Activity [2]: < 20%; pIC50 [3]: 2.54

**Q.** Which results are given for `COc1cc(CN[C@H]2C[C@@H](O)[C@H](O)[C@@H](O)[C@H]2O)ccc1O`?
**A.** SC50 [1]: 2.1 mM; pIC50 [3]: 4.03

**Q.** Which results are given for `CC(C)(C)c1cc(CN[C@H]2C[C@@H](O)[C@H](O)[C@@H](O)[C@H]2O)cc(C(C)(C)C)c1O`?
**A.** SC50 [1]: 0.4 mM; pIC50 [3]: 4.05

**Q.** For `O[C@@H]1[C@@H](O)[C@H](O)C[C@H](NCc2ccc(Br)cc2)[C@@H]1O`, which Activity [2] is on record?
**A.** Its Activity is less than 20%.

**Q.** What about the pIC50 [3] of the same molecule?
**A.** Its pIC50 is 2.50.

**Q.** What does the source list for `Oc1ccc(CN[C@H]2C[C@@H](O)[C@H](O)[C@@H](O)[C@H]2O)cc1`?
**A.** SC50 [1]: 16.2 mM; pIC50 [3]: 3.96

**Q.** With `O=Cc1ccc(O)cc1` [4-HYDROXYBENZALDEHYDE] as the molecule, how does the Activity [2] read?
**A.** Its Activity is less than 20%.

**Q.** What does the source list for `C[C@H]1O[C@H](O[C@H]2[C@H](O)[C@@H](O)[C@@H](O[C@H]3[C@H](O)[C@@H](O)C(O)O[C@@H]3CO)O[C@@H]2CO)[C@H](O)[C@@H](O)[C@@H]1N[C@H]1C=C(CO)[C@@H](O)[C@H](O)[C@H]1O` (stereo partly drawn) [ACARBOSE]?
**A.** Activity [2]: < 20%; pIC50 [3]: 3.32

**Q.** Which SC50 [1] does the source give for `CC(C)(C)c1cc(C=O)cc(C(C)(C)C)c1O` here?
**A.** The SC50 was 1.4 mM.

**Q.** Which Activity [2] does the source give for `O[C@@H]1[C@@H](O)[C@H](O)C[C@H](NCc2cccnc2)[C@@H]1O` here?
**A.** Its Activity is less than 20%.

**Q.** And the inhibition (Saccharomyces cerevisiae)?
**A.** Its inhibition is less than 30%.

**Q.** What does the source list for `O[C@@H]1[C@@H](O)[C@H](O)C[C@H](NCc2cccs2)[C@@H]1O`?
**A.** Activity [2]: < 20%; inhibition (Saccharomyces cerevisiae): < 30%

**Q.** With `O[C@@H]1[C@@H](O)[C@H](O)C[C@H](NCCc2ccccc2)[C@@H]1O` as the molecule, how does the Activity [2] read?
**A.** Its Activity is less than 20%.

**Q.** What about the pIC50 [3] of the same molecule?
**A.** The pIC50 was 2.87.
